Results published in patent US5169855A, “Piperidine ether derivatives as psychotropic drugs or plant fungicides” (priority 1990, dated 1992).

Assays:
[1] = system: isolation-induced aggressive behavior; test: Isolation-Induced Aggression in Mice; assay type: in vivo, mouse (male Balb/c); details: po
Protocol: Male Balb/c mice (Charles River) were used. […] Isolated mice failing to consistently attack an intruder were eliminated from the colony.
Drug testing was carried out by treating the isolated mice with test drugs or standards. Fifteen min after dosing with drugs by the oral route (po), one isolated mouse was removed from its home cage and placed in the home cage of another isolate. Scoring was a yes or no response for each pair. A maximum of 3 min was allowed for an attack and the pair was separated immediately upon an attack. Selection of home cage and intruder mice was randomized for each test. Mice were treated and tested twice a week with at least a 2 day washout period between treatments.

[2] = system: (+)-N-allylnormetazocine-induced turning; test: (+)-N-Allylnormetazocine-Induced Turning Behavior in Rats; assay type: in vivo, rat (male Sprague-Dawley); details: p.o.
Cercosporidum personatum = test: Test D: peanut late leaf spot disease control (peanut seedlings); assay type: in vivo; details: sprayed at 1000 to 2 ppm (rate not given per compound)
Protocol: The test compounds were dissolved in acetone in an amount equal to 6% of the final volume and then suspended at a concentration of from 1000 to 2 ppm in purified water containing 250 ppm of the surfactant TREM 014 (polyhydric alcohol esters). This suspension was sprayed to the point of run-off on peanut seedlings. The following day plants were inoculated with a spore suspension of Cercosporidum personatum, the causal agent of peanut late leaf spot, and incubated in a saturated humidity chamber at 22° C. for 24 hours and then in a high humidity chamber at 27° C. for 7 days, and then in a growth chamber at 29° C. for 7 days, when disease ratings were made.

Rhizoctonia solani = test: Test I: rice sheath blight disease control (rice seedlings); assay type: in vivo; details: sprayed at 1000 to 2 ppm (rate not given per compound)
Protocol: The test compounds were dissolved in acetone in an amount equal to 6% of the final volume and then suspended at a concentration of from 1000 to 2 ppm in purified water containing 250 ppm of the surfactant TREM 014 (polyhydric alcohol esters). This suspension was sprayed to the point of run-off on rice seedlings. The following day plants were inoculated with a mycelial suspension of Rhizoctonia solani, the causal agent of rice sheath blight, and incubated in a saturated humidity chamber at 27° C. for 48 hours and then in a growth chamber at 29° C. for 4 days, when disease ratings were made.

Venturia inaequalis = test: Test C: apple scab disease control (apple seedlings); assay type: in vivo; details: sprayed at 1000 to 2 ppm (rate not given per compound)
Protocol: (§1) The test compounds were dissolved in acetone in an amount equal to 6% of the final volume and then suspended at a concentration of from 1000 to 2 ppm in purified water containing 250 ppm of the surfactant TREM 014 (polyhydric alcohol esters). This suspension was sprayed to the point of run-off on apple seedlings. The following day plants were inoculated with a spore suspension of Venturia inaequalis, the causal agent of apple scab, and incubated in a saturated humidity chamber at 20° C. for 24 hours and then in a growth chamber at 22° C. for 11 days, when disease ratings were made.

Puccinia recondita = test: Test B: wheat leaf rust disease control (wheat seedlings); assay type: in vivo; details: sprayed at 1000 to 2 ppm (rate not given per compound)
Protocol: The test compounds were dissolved in acetone in an amount equal to 6% of the final volume and then suspended at a concentration of from 1000 to 2 ppm in purified water containing 250 ppm of the surfactant TREM 014 (polyhydric alcohol esters). This suspension was sprayed to the point of run-off on wheat seedlings.

Pyricularia oryzae = assay type: in vivo; details: rice blast; sprayed at 1000 to 2 ppm (rate not given per compound)
Phytophthora infestans = assay type: in vivo; details: tomato late blight; sprayed at 1000 to 2 ppm (rate not given per compound)
[3] = system: Erysiphe graminis f. sp. tritici; test: Test A: wheat powdery mildew disease control (wheat seedlings); assay type: in vivo; details: sprayed at 1000 to 2 ppm (rate not given per compound)
Protocol: as §1, with “on wheat” for “on apple”, “spore dust” for “spore suspension”, “of Erysiphe graminis f. sp. tritici,” for “of Venturia inaequalis,”, “of wheat powdery mildew,” for “of apple scab,”, “a growth” for “a saturated humidity”, “for 7” for “for 24 hours and then in a growth chamber at 22° C. for 11”

Botrytis cinerea = test: Test E: cucumber grey mold disease control (cucumber seedlings); assay type: in vivo; details: sprayed at 1000 to 2 ppm (rate not given per compound)
Protocol: as §1, with “cucumber” for “apple”, “Botrytis cinerea,” for “Venturia inaequalis,”, “cucumber grey mold,” for “apple scab,”, “48” for “24”, “greenhouse” for “growth chamber at 22° C.”, “5” for “11”

Plasmopara viticola = test: Test G: grape downy mildew disease control (grape seedlings); assay type: in vivo; details: sprayed at 1000 to 2 ppm (rate not given per compound)
Protocol: as §1, with “grape” for “apple”, “Plasmopara viticola,” for “Venturia inaequalis,”, “grape downy mildew,” for “apple scab,”, “dew” for “saturated humidity”, “a 20°” for “at 22°”, “7” for “11”

sigma receptor = details: Tam, Eur. Pharmacol. 109: 33-41 (1985); cited from earlier work

Fc1ccc(OCC2CCN(Cc3ccccc3)CC2)cc1 [Example 68, 1-Benzyl-4-(4'-Fluorophenoxymethyl)piperidine]
inhibiting the isolation-induced aggressive behavior (in words) [1]: potent activities | antagonism of N-allylnormetazocine-induced rotation (in words) [2]: potently antagonized

Fc1ccc(COCC2CCN(Cc3ccc4ccccc4c3)CC2)cc1 [Example 114]
inhibiting the isolation-induced aggressive behavior (in words) [1]: potent activities

Clc1ccc(OCC2CCN(Cc3ccccc3)CC2)cc1 [Example 134]
inhibiting the isolation-induced aggressive behavior (in words) [1]: potent activities

O=[N+]([O-])c1ccc(OCC2CCN(Cc3ccccc3)CC2)cc1 [Example 135]
inhibiting the isolation-induced aggressive behavior (in words) [1]: potent activities

FC(F)(F)c1ccc(OCC2CCN(Cc3ccccc3)CC2)cc1 [Example 136]
inhibiting the isolation-induced aggressive behavior (in words) [1]: potent activities

Fc1ccc(OCC2CCN(Cc3ccc(Cl)cc3)CC2)cc1 [Example 138]
inhibiting the isolation-induced aggressive behavior (in words) [1]: potent activities

Fc1ccc(COCC2CCN(Cc3ccccc3)CC2)cc1 [Example 181]
disease control rating, Test D (Cercosporidum personatum): 82% | inhibiting the isolation-induced aggressive behavior (in words) [1]: potent activities | disease control rating, Test I (Rhizoctonia solani): 0% | disease control rating, Test C (Venturia inaequalis): 55% | disease control rating, Test B (Puccinia recondita): 37% | disease control rating, Test H (Pyricularia oryzae): 0% | disease control rating, Test F (Phytophthora infestans): 0% | disease control rating, Test A [3]: 87%

COc1ccc(COCC2CCN(Cc3ccccc3)CC2)cc1 [Example 182]
disease control rating, Test D (Cercosporidum personatum): 0% | disease control rating, Test I (Rhizoctonia solani): 0% | disease control rating, Test C (Venturia inaequalis): 0% | disease control rating, Test B (Puccinia recondita): 27% | disease control rating, Test H (Pyricularia oryzae): 0% | disease control rating, Test F (Phytophthora infestans): 0% | disease control rating, Test A [3]: 63%

c1ccc(COCC2CCN(Cc3ccccc3)CC2)cc1 [Example 185]
disease control rating, Test D (Cercosporidum personatum): 26% | disease control rating, Test E (Botrytis cinerea): 0% | disease control rating, Test I (Rhizoctonia solani): 0% | disease control rating, Test C (Venturia inaequalis): 28% | disease control rating, Test B (Puccinia recondita): 0% | disease control rating, Test H (Pyricularia oryzae): 0% | disease control rating, Test F (Phytophthora infestans): 0% | disease control rating, Test A [3]: 29%

COC(=O)c1ccc(COCC2CCN(Cc3ccccc3)CC2)cc1 [Example 186]
disease control rating, Test D (Cercosporidum personatum): 0% | disease control rating, Test E (Botrytis cinerea): 0% | disease control rating, Test I (Rhizoctonia solani): 0% | disease control rating, Test C (Venturia inaequalis): 81% | disease control rating, Test H (Pyricularia oryzae): 0% | disease control rating, Test F (Phytophthora infestans): 0% | disease control rating, Test A [3]: 0%

COC(=O)c1ccc(CN2CCC(COCc3ccc(F)cc3)CC2)cc1 [Example 187]
disease control rating, Test D (Cercosporidum personatum): 0% | disease control rating, Test E (Botrytis cinerea): 0% | disease control rating, Test I (Rhizoctonia solani): 0% | disease control rating, Test C (Venturia inaequalis): 51% | disease control rating, Test B (Puccinia recondita): 96% | disease control rating, Test H (Pyricularia oryzae): 0% | disease control rating, Test F (Phytophthora infestans): 0% | disease control rating, Test A [3]: 98%

Fc1ccc(COCC2CCN(Cc3ccc(Cl)cc3)CC2)cc1 [Example 188]
disease control rating, Test D (Cercosporidum personatum): 82% | disease control rating, Test E (Botrytis cinerea): 18% | disease control rating, Test I (Rhizoctonia solani): 0% | disease control rating, Test C (Venturia inaequalis): 93% | disease control rating, Test B (Puccinia recondita): 72% | disease control rating, Test H (Pyricularia oryzae): 0% | disease control rating, Test F (Phytophthora infestans): 8% | disease control rating, Test G (Plasmopara viticola): 89% | disease control rating, Test A [3]: 100%

Oc1ccc(CN2CCC(COCc3ccc(F)cc3)CC2)cc1 [Example 189]
disease control rating, Test D (Cercosporidum personatum): 75% | disease control rating, Test E (Botrytis cinerea): 0% | disease control rating, Test I (Rhizoctonia solani): 0% | disease control rating, Test C (Venturia inaequalis): 86% | disease control rating, Test B (Puccinia recondita): 26% | disease control rating, Test H (Pyricularia oryzae): 0% | disease control rating, Test F (Phytophthora infestans): 0% | disease control rating, Test A [3]: 99%

Fc1ccc(COCC2CCN(Cc3ccc4ccccc4c3)CC2)cc1 [Example 195]
disease control rating, Test D (Cercosporidum personatum): 46% | disease control rating, Test E (Botrytis cinerea): 0% | disease control rating, Test I (Rhizoctonia solani): 0% | disease control rating, Test C (Venturia inaequalis): 68% | disease control rating, Test B (Puccinia recondita): 73% | disease control rating, Test H (Pyricularia oryzae): 0% | disease control rating, Test F (Phytophthora infestans): 0% | disease control rating, Test A [3]: 99%

Fc1ccc(COCC2CCN(Cc3cccc4ccccc34)CC2)cc1 [Example 196]
disease control rating, Test D (Cercosporidum personatum): 0% | disease control rating, Test E (Botrytis cinerea): 0% | disease control rating, Test I (Rhizoctonia solani): 0% | disease control rating, Test C (Venturia inaequalis): 90% | disease control rating, Test H (Pyricularia oryzae): 0% | disease control rating, Test F (Phytophthora infestans): 26% | disease control rating, Test G (Plasmopara viticola): 40% | disease control rating, Test A [3]: 0%

Fc1ccc(COCC2CCN(Cc3ccccc3)CC2)cc1 [Example 205]
disease control rating, Test D (Cercosporidum personatum): 30% | disease control rating, Test E (Botrytis cinerea): 33% | disease control rating, Test I (Rhizoctonia solani): 0% | disease control rating, Test C (Venturia inaequalis): 66% | disease control rating, Test B (Puccinia recondita): 35% | disease control rating, Test H (Pyricularia oryzae): 0% | disease control rating, Test F (Phytophthora infestans): 0% | disease control rating, Test A [3]: 94%

CCCCCCN1CCC(COCc2ccc(F)cc2)CC1 [Example 312]
disease control rating, Test D (Cercosporidum personatum): 51% | disease control rating, Test E (Botrytis cinerea): 0% | disease control rating, Test I (Rhizoctonia solani): 0% | disease control rating, Test C (Venturia inaequalis): 16% | disease control rating, Test B (Puccinia recondita): 27% | disease control rating, Test H (Pyricularia oryzae): 0% | disease control rating, Test F (Phytophthora infestans): 0% | disease control rating, Test A [3]: 97%

Fc1ccc(COCC2CCN(CCCc3ccccc3)CC2)cc1 [Example 313]
disease control rating, Test D (Cercosporidum personatum): 91% | disease control rating, Test E (Botrytis cinerea): 0% | disease control rating, Test I (Rhizoctonia solani): 0% | disease control rating, Test C (Venturia inaequalis): 40% | disease control rating, Test B (Puccinia recondita): 29% | disease control rating, Test H (Pyricularia oryzae): 0% | disease control rating, Test F (Phytophthora infestans): 0% | disease control rating, Test A [3]: 97%

CC(C)=CCN1CCC(COCc2ccc(F)cc2)CC1 [Example 314]
disease control rating, Test D (Cercosporidum personatum): 75% | disease control rating, Test E (Botrytis cinerea): 8% | disease control rating, Test I (Rhizoctonia solani): 39% | disease control rating, Test C (Venturia inaequalis): 46% | disease control rating, Test H (Pyricularia oryzae): 0% | disease control rating, Test F (Phytophthora infestans): 0% | disease control rating, Test A [3]: 91%

Fc1ccc(COC2CCN(Cc3ccccc3)CC2)cc1 [Example 315]
disease control rating, Test D (Cercosporidum personatum): 46% | disease control rating, Test E (Botrytis cinerea): 0% | disease control rating, Test I (Rhizoctonia solani): 19% | disease control rating, Test C (Venturia inaequalis): 90% | disease control rating, Test B (Puccinia recondita): 52% | disease control rating, Test H (Pyricularia oryzae): 0% | disease control rating, Test F (Phytophthora infestans): 0% | disease control rating, Test A [3]: 99%

O=C(CCCN1CCC(O)(c2ccc(Cl)cc2)CC1)c1ccc(F)cc1 [Haloperidol, reference compound]
inhibiting the isolation-induced aggressive behavior (in words) [1]: potent activities | antagonism of N-allylnormetazocine-induced rotation (in words) [2]: potently antagonized

c1ccc(C2(N3CCCCC3)CCCCC2)cc1 [PCP]
affinity for the sigma receptor (in words) (sigma receptor): significant affinity
